# Measurements: US9694073B2, “Small molecule inhibitors of polynucleotide kinase/phosphatase, poly(ADP-ribose) polymerase and uses thereof” (THE GOVERNORS OF THE UNIVERSITY OF ALBERTA, priority 2009, dated 2017)
# Entries after “also recorded” stand apart in the source; their conditions may differ. Starred links: 1 amine or outer side, 2 acyl side, 3 side chain; linkers in the order of their positions; H or OH if unused. Positions of bridges follow the written chain, without caps; N, C: chain ends. Non-standard residues stand in square brackets, D forms with d. Residues, ends and D or L forms follow the SMILES beside them. Adda = CO[C@@H](Cc1ccccc1)[C@@H](C)/C=C(C)/C=C/[C@H](N[*:1])[C@H](C)C(=O)[*:2]; dAsp(3S-Me) = C[C@H](C(=O)[*:3])[C@@H](N[*:1])C(=O)[*:2]; d(γGlu) = O=C(O)[C@@H](CCC(=O)[*:2])N[*:1]; NMeDha = C=C(NC)C(=O)O
# Legend:
# [1] = molecular target: T1, human PNKP (hPNKP) 3'-phosphatase activity (Homo sapiens, UniProt Q96T60); test: Fluorescence quenching-based screening assay for PNKP 3'-phosphatase activity; format: biochemical; details: 100 μM compound, 50 ng hPNKP
# T1 construct: made in house; host or cells: bacteria (said only for the batch compared with aprataxin)
# Procedure: The […] assay developed originally for protein kinases by QTL Biosystems (Santa Fe, N. Mex.) was modified. […] The TAMRA-labelled oligonucleotide lacking a 3'-phosphate served as a control. […] The assay was performed in 384-well white Optiplate microplates (PerkinElmer, Woodbridge, ON) in 70 mM Tris-HCl, pH 7.4, 60 mM MgCl2, 5 mM MnCl2, 0.3% BSA, 0.09% sodium azide. Reaction buffer was prepared by adding 1 mM DTT immediately prior to use. Five μL of 3'-phosphatase substrate (final concentration 0.5 μM) was used per well. In duplicate, 10 μl of each concentration of hPNKP was added per well. Plates were incubated for 1 hour at 37° C. and then 15 μl of 1× sensor solution (provided by QTL) was added to each well and incubated for 30 minutes at room temperature. Fluorescence (485 nm excitation and 520 nm emission wavelengths) of each well was read in a FLUOstar Optima® (BMG Labtech Inc, Durham, N.C.). Data were analyzed using GraphPad Prism® Software (San Diego, Calif.). […] Small molecules were provided in powder form and were dissolved in 100% DMSO and a final concentration of 100 μM was added to each well and assays were performed as described above. After obtaining an optimum calibration curve and enzyme concentration curve, a simplified form of the assay to test the library in a short time, was employed. One concentration of hPNKP, 50 ng, was tested and compared with the control well with no enzyme. The assay was conducted in the same way as described above with respect to oligonucleotides, buffer, controls, incubation lengths/temperatures, centrifugations and sensor addition. The fluorescence-based phosphatase assay adapted was originally developed to monitor protein phosphatase activity (34). This assay involves a fluorescent sensor molecule coated in trivalent metal cations which causes superquenching of the sensor signal when in close proximity to a dye (TAMRA) on the substrate. The sensor is brought close to TAMRA via the ionic bond formed between the terminal DNA phosphate and the trivalent metal cations on the sensor. Removal of the phosphate leads to an elevation of fluorescence because the sensor is not brought close enough to TAMRA for its signal to be quenched. […] Heat inactivated hPNKP was used as a control.
# [2] = molecular target: T2, hPNKP 3'-phosphatase activity (Homo sapiens, UniProt Q96T60); test: Conventional radio-gel assay for hPNKP 3'-phosphatase activity; format: biochemical
# T2 construct: made in house; host or cells: bacteria (said only for the batch compared with aprataxin)
# [3] = system: M059J cells (DNA-PKcs negative); format: cell-based, human
# [4] = system: A549-VO vector only control cells
# PP-1cγ = molecular target: T3, PP-1cγ (Homo sapiens, UniProt P36873); test: PP-1cγ pNPP phosphatase assay; format: biochemical
# T3 construct: made in house; host or cells: E. coli
# T3 sequence (P36873 whole entry): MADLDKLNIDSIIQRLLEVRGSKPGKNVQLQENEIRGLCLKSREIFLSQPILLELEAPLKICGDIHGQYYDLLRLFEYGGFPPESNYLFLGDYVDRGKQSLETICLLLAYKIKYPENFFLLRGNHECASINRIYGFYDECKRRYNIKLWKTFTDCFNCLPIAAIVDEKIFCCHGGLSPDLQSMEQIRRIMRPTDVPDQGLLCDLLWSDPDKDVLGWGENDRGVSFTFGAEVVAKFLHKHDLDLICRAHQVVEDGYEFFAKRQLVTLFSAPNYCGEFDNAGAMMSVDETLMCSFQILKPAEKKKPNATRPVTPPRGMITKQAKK
# Procedure: PP-1cγ and calcineurin activity was analyzed, using a colorimetric p-nitrophenol phosphate (pNPP) assay as previously described (33). The reaction were carried out in a 96-well microplate with a final volume of 60 μl containing 40 μl of pNPP assay buffer (50 mM Tris, pH 7.4, 0.1 mM EDTA, 30 mM MgCl2, 0.5 mM MnCl2, 1 mg/ml BSA, 0.2% β-mercaptoethanol), 0.03 μg PP-1cγ (specific activity>30 units per mg) or a catalytically equivalent quantity of calcineurin and 10 μl of 0.5 mM DNA 3′-phosphatase inhibitor sample in DMSO or 10 μl of 50 μM A12B4C3 sample in DMSO, or control solvent. After a 10-minute incubation at 37° C., 10 μl of 30 mM pNPP was added to each well and incubated for an additional of 60 minutes and 45 minutes for PP-1cγ and calcineurin, respectively.
smiles,measurement,setting,value
"O=C1C2C=CC(C(O)c3ccccc3)N(Nc3ccc([N+](=O)[O-])cc3)C2C(=O)N1c1ccccc1 (stereo not drawn) [Compound A1B4C3, 2-(hydroxy(phenyl)methyl)-1-(4-nitrophenylamino)-6-phenyl-6,7a-dihydro-1H-pyrrolo[3,4-b]pyridine-5,7(2H,4aH)-dione]",inhibition of hPNKP phosphatase activity (substrate dephosphorylation) in the screening assay,[1],significant inhibition; also recorded: marked inhibition
same,"inhibition of hPNKP phosphatase activity, radio-gel assay",[2],inhibited
"CN1C(=O)C2C=CC(C(O)C(c3ccccc3)c3ccccc3)N(NC(=O)OC(C)(C)C)C2C1=O (stereo not drawn) [Compound A26B11C2, tert-butyl 2-(1-hydroxy-2,2-diphenylethyl)-6-methyl-5,7-dioxo-2,4a,5,6,7,7a-hexahydro-1H-pyrrolo[3,4-b]pyridin-1-ylcarbamate]",inhibition of hPNKP phosphatase activity (substrate dephosphorylation) in the screening assay,[1],significant inhibition; also recorded: marked inhibition
same,"inhibition of hPNKP phosphatase activity, radio-gel assay",[2],inhibited
"CN1C(=O)C2C=CC(C(O)c3cccs3)N(Nc3ccccc3)C2C1=O (stereo not drawn) [Compound A39B1C2, 2-(hydroxy(thiophen-2-yl)methyl)-6-methyl-1-(phenylamino)-6,7a-dihydro-1H-pyrrolo[3,4-b]pyridine-5,7(2H,4aH)-dione]",inhibition of hPNKP phosphatase activity (substrate dephosphorylation) in the screening assay,[1],significant inhibition; also recorded: marked inhibition
same,"inhibition of hPNKP phosphatase activity, radio-gel assay",[2],inhibited
"O=C1NCCc2c(OCCCCN3CCCCC3)cccc21 [DPQ, 3,4-dihydro-5[4-(1-piperindinyl)butoxy]-1(2H)-isoquinoline]",cell survival of M059J cells,[3],reduced survival
same,cell survival of control cells (A549-VO),[4],no such relationship
"C=C1C(=O)N[C@H](C)C(=O)N[C@@H](CC(C)C)C(=O)N[C@@H](C(=O)O)[C@H](C)C(=O)N[C@@H](CCCNC(=N)N)C(=O)N[C@@H](/C=C/C(C)=C/[C@H](C)[C@H](Cc2ccccc2)OC)[C@H](C)C(=O)N[C@@H](C(=O)O)CCC(=O)N1C [microcystin LR, reference compound] (R[Adda][d(γGlu)][NMeDha][dA]L[dAsp(3S-Me)]-OH; lactam N-7)",reduction of the activity of PP1,PP-1cγ,~65%
